Data reported in patent US11873298B2, “Compounds and uses thereof” (JANSSEN PHARMACEUTICA NV, priority 2017, dated 2024).
“And” between values parts separate entries of the source, which are not always exact repeats. Equal entries are not always repeated.

Tests used:
Assay type in all cases: cell-based
[1] = target: T1, SCD5 (Homo sapiens, UniProt Q86SK9); assay: Growth inhibition of humanized yeast strain expressing SCD5 as sole desaturase; conditions: for IC50 / SCD5 % Max Inhibition: humanized yeast strain expressing SCD5
T1 construct: host or cells: S. cerevisiae ole1Δ strain (W303 pdr1Δ pdr3Δ background), plasmid pRS316 with TDH3 promoter and CYC1 terminator
T1 sequence (Q86SK9 1-330): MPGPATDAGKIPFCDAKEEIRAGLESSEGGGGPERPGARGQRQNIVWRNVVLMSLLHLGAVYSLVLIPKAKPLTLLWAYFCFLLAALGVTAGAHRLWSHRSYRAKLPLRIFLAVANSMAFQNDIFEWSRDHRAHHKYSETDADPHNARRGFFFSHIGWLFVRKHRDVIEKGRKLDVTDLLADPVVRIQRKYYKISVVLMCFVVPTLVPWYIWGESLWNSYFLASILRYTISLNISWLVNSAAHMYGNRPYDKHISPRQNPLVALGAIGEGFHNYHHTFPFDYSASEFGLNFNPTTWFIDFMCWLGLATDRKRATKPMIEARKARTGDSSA
Outline: (§1)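 Yeast ole1Δ strain (W303 pdr1Δ pdr3Δ background) carrying plasmid-borne Ole1, SCD1 or SCD5 as sole desaturase was grown in uracil-lacking media, pre-cultured in raffinose for 6 h, then seeded in galactose medium with compound in DMSO. Growth was read as OD600 after 30° C. incubation: 24 h for Ole1, 40 h for SCD1/SCD5.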

[2] = target: T2, Ole1 (Saccharomyces cerevisiae, UniProt P21147); assay: Growth inhibition of yeast strain expressing Ole1 as sole desaturase; conditions: for IC50 / OLE1 % Max Inhibition: yeast strain expressing Ole1 as sole desaturase
T2 construct: expressed in transfected cells; host or cells: S. cerevisiae ole1Δ strain (W303 pdr1Δ pdr3Δ background), plasmid pRS316 with TDH3 promoter and CYC1 terminator
T2 sequence (P21147 1-510): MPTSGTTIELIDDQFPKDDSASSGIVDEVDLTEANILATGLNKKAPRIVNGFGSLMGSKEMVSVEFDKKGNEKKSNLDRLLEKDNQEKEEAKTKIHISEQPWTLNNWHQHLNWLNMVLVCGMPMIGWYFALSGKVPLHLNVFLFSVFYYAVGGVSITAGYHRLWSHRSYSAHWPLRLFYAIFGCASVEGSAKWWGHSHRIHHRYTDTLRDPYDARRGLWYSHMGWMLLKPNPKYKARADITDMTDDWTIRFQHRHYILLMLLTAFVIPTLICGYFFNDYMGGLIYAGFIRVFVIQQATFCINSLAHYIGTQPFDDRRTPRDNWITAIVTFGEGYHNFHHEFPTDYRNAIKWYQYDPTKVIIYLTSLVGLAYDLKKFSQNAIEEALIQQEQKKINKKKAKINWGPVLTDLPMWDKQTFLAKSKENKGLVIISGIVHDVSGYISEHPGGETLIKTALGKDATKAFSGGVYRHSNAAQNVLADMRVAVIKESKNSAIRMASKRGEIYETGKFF
Description: Strain oleΔ (yeast ole1 deletion mutant) was constructed by deleting OLE1 with NAT-MX6 in BY4741, amplifying the deletion cassette from the genomic DNA of the resulting strain with primers flanking the ORF by 1000 bp upstream and downstream, transforming the resulting deletion cassette into W303 pdr1Δ pdr3Δ, and plating transformants on YPD media containing G418 (200 μg/mL) and nourseothricin ([…]) with 0.01% TWEEN®-20 and 0.5 mM oleic and palmitoleic acids.
The coding sequence of yeast OLE1 was also cloned into this plasmid). These clones were then transformed into the ole1Δ strain and plated on CSM-Ura media (CSM lacking uracil) with 2% glucose (w/v) and independent colonies were isolated and amplified.
All compound profiling experiments were performed using the same basic protocol. Different genetic backgrounds (e.g., gene deletions) or conditions (e.g., addition of oleic and palmitoleic acid) were replaced as indicated below.
Yeast were cultured using standard techniques in complete synthetic media (CSM) and yeast nitrogen base supplemented with 2% (w/v) carbon source (glucose, raffinose, or galactose) to regulate the expression of the toxic disease protein. An initial starter culture was inoculated in 3 mL CSM-Glucose media and incubated overnight in a 30° C. shaker incubator (225 rpm). Saturated morning cultures were then diluted 1:20 in fresh CSM-Raffinose media and grown for 6 h to an OD600 (optical density) of ˜0.4-0.8 at 30° C. with shaking.
Compound administration was performed in two separate steps. First, 15 μL of CSM-Galactose (induces expression of toxic protein) was dispensed into clear 384 well assay plates using a MULTIDROP™ Combi reagent dispenser. […] The cultures described above were then diluted to a 2× concentration (0.03 and 0.08 for alpha-synuclein and ApoE, final ODsoo of 0.015 and 0.04) in CSM-Galactose. For wild-type and Ole1/SCD1/SCD5 plasmid-containing strains, the 2× cell density was 0.02. […] For 96-well assays (FIGS. 1A and 1B), compound dilutions in DMSO were generated in 96 well plates and 1 μL was manually pipetted into 96 well clear bottom assay plates.
For experiments using a plasmid-borne copy of Ole1, SCD1, or SCD5 (FIGS. 3B, 6, and 7), media lacking uracil (SX-Ura, where X is glucose, raffinose, or galactose), was used for all steps of the compound profiling protocol to ensure its maintenance throughout the assay.
After yeast delivery, assay plates were incubated under humidified conditions at 30° C. for 24 to 40 h. ApoE4 rescue experiments were stopped at 24 h, aSyn experiments at 40 h, Ole1 at 24 h, and SCD1/SCD5 at 40 h. The growth of yeast was monitored by reading the ODsoo of each well using a microplate reader (Perkin Elmer EnVision™).

[3] = target: T3, SCD1 (Homo sapiens, UniProt O00767); assay: Growth inhibition of humanized yeast strain expressing SCD1 as sole desaturase; conditions: for IC50 / SCD1 % Max Inhibition: humanized yeast strain expressing SCD1
T3 construct: host or cells: S. cerevisiae ole1Δ strain (W303 pdr1Δ pdr3Δ background), plasmid pRS316 with TDH3 promoter and CYC1 terminator
T3 sequence (O00767 1-359): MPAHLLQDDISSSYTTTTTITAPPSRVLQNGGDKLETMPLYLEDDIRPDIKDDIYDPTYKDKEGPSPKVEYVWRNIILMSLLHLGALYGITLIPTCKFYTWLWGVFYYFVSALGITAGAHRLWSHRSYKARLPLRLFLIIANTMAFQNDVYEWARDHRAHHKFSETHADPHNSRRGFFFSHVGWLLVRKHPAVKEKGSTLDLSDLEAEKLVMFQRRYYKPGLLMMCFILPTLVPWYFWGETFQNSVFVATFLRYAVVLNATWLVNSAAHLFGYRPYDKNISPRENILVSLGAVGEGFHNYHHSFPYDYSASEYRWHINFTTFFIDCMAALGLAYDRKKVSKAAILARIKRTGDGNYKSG
Outline: as §1

Compound	IC50 [1]	SCD5 % Max Inhibition [1]	IC50 [2]	OLE1 % Max Inhibition [2]	IC50 [3]	SCD1 % Max Inhibition [3]	half-maximal inhibitory concentration (IC50) ([1]; SCD5 humanized strain, FIG. 6)	growth of yeast expressing OLE1 in presence of inhibitor ([2]; FIG. 6)	half-maximal inhibitory concentration (IC50) ([3]; SCD1 humanized strain, FIG. 6)
Cc1nn(C)c2cc(-c3noc(C4CCN(C(=O)[C@H]5CC(=O)N(c6ccc(C#N)cc6)C5)CC4)n3)ccc12 [Compound 307]	> 45 µM	52.5% and 27.45%	> 45 µM	7.8% and 4.08%	≥ 45 µM	78.2% and 70.58%			
CCOc1ccc(-c2noc(C3CCN(C(=O)C4CN(C(=O)c5ccccc5)C4)CC3)n2)cc1OC [Compound 237]	32.6 µM	45.34%	> 45 µM	18.53%	> 45 µM	71.76%			
CC(C)n1ncc2ccc(-c3noc(C4CCN(C(=O)OC(C)(C)C)CC4)n3)cc21 [Compound 265]	> 45 µM	10.96% and 3.97%	> 45 µM	103.04% and 83.99%	≥ 45 µM	76.74% and 54.38%			
Cc1nn(C)c2cc(-c3noc(C4CCN(C(=O)c5ccc(C(C)C)cc5)CC4)n3)ccc12 [Compound 290]	> 45 µM	8.8%	> 45 µM	20.6%		3.3%			
COC(=O)N1CCC(c2nc(-c3ccc4c(C)nn(C)c4c3)no2)CC1 [Compound 273]	> 45 µM	55.0%	> 45 µM	78.7%		67.9%			
Cc1nn(C)c2cc(-c3noc(C4CCN(C(=O)C5CC(=O)N(c6ccc(F)cn6)C5)CC4)n3)ccc12 (stereo not shown) [Compound 275]	> 45 µM	78.05%	> 45 µM	11.24%	> 45 µM	76.51%			
O=C(C1CC(=O)N(c2cccc(Cl)c2)C1)N1CCC(c2nc(N3CC4(COC4)C3)no2)CC1 (stereo not shown) [Compound 339]	> 45 µM	75.4%	> 45 µM	85.7%	> 45 µM	56.1%			
Cc1nnc(-c2ccc(N3CCC(Oc4ccccc4C(F)(F)F)CC3)nn2)s1 [MF-438, reference compound]							low nanomolar	resistant	low nanomolar
Cc1nn(C)c2cc(-c3noc(C4CCN(C(=O)[C@H]5CC(=O)N(c6ccccc6)C5)C(C)C4)n3)ccc12 (stereo partly shown) [Compound 240]	> 45 µM	12.95%	> 45 µM	4.30%	> 45 µM	66.85%			
CC(C)c1ccc(C(=O)N2CCC(c3nc(C(=O)Nc4cnn(C)c4)no3)CC2)cc1 [Compound 285]	> 45 µM	30.09%	> 45 µM	105.26%		45.62%			
Cc1nn(C)c2cc(-c3noc(N4CC5(CN(C(=O)CNC(=O)c6ccccc6)C5)C4)n3)ccc12 [Compound 212]	> 45 µM	76.28%	> 45 µM	100.82%	> 45 µM	76.79%			
Cc1ccc(N2CC(C(=O)N3CCC(c4nc(-c5ccc6c(C)nn(C)c6c5)no4)CC3)CC2=O)cn1 (stereo not shown) [Compound 179]	> 45 µM	85.02%	38.7 µM	76.70%	> 45 µM	106.53%			
O=C([C@H]1CC(=O)N(c2ccccc2)C1)N1CCC(c2nc(-c3ccc(Br)s3)no2)CC1 [Compound 248]	> 45 µM	13.59%	> 45 µM	73.12%		3.09%			
CCn1nc2cc(-c3noc(C4CCN(C(=O)OC(C)(C)C)CC4)n3)ccc2c1C [Compound 342]	> 45 µM	43.5%	> 45 µM	80.9%	> 45 µM	75.9%			
Cc1nn(C)c2cc(-c3noc(C4CCN(C(=O)N[C@@H]5C[C@@H]5c5ccccc5)CC4)n3)ccc12 [Compound 329]	> 45 µM	13.4%	> 45 µM	12.5%		16.2%			
O=C(CN1Cc2ccccc2C1=O)N1CCC(c2nc(-c3ccc4nonc4c3)no2)CC1 [Compound 182]	> 45 µM	79.82%	> 45 µM	124.27%	> 45 µM	113.27%			
